Data from patent US10562909B2, “Fused quadracyclic compounds, compositions and uses thereof” (Tabomedex Biosciences, LLC, priority 2016, dated 2020).

Biological target: MAPKAPK2 (Homo sapiens, UniProt P49137)
Assay: MK2 Enzymatic Assay
Type: biochemical
Details: 0.5 nM MAPKAPK2, 3 μM ATP, 2 μM Ser/Thr4 peptide, 23° C., values given as concentration bins
Procedure, shortened: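 MAPKAPK2 (2× stock 1 nM) and peptide substrate (2× 4 μM) were preincubated 20 min, then started with ATP (2× stock 6 μM) for 120 min. After 120 min development, coumarin/fluorescein emission ratio gave percent phosphorylation against 0% and 100% phosphopeptide controls.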

Sequence of MAPKAPK2 (P49137 whole entry, species assumed): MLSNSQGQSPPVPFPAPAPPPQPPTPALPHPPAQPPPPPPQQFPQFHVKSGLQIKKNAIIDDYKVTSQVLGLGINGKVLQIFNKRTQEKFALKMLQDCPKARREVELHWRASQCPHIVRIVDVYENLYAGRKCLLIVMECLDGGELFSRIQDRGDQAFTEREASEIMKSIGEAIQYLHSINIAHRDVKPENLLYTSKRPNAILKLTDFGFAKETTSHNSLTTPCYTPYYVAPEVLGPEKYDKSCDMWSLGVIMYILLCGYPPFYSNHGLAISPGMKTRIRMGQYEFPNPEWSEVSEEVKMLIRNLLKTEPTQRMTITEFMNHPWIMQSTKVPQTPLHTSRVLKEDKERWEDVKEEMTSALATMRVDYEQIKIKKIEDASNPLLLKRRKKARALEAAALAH

CN1CC2(CCN(c3ccc4c(c3)Cn3cc(-c5ccc(C#N)cc5)cc3-c3ncnn3-4)C2)C1 [Compound 253, 4-(7-(2-methyl-2,6-diazaspiro[3.4]octan-6-yl)-9H-benzo[e]pyrrolo[1,2-a][1,2,4]triazolo[5,1-c][1,4]diazepin-12-yl)benzonitrile] and CN1CC2(CCN(c3ccc4c(c3)Cn3cc(-c5ccc(C#N)cc5)cc3-c3nccn3-4)C2)C1 [Compound 125, 4-(7-(2-methyl-2,6-diazaspiro[3.4]octan-6-yl)-9H-benzo[e]imidazo[2,1-c]pyrrolo[1,2-a][1,4]diazepin-12-yl)benzonitrile] cannot be ordered by IC50: under 50 nM for the first, under 50 nM for the second.

CN(C)[C@@H]1CN(c2ccc3c(c2)Cn2cc(-c4ccc(F)cc4)cc2-c2nccn2-3)C[C@H]1O [Compound 351, (3R,4R)-4-(dimethylamino)-1-(12-(4-fluorophenyl)-9H-benzo[e]imidazo[2,1-c]pyrrolo[1,2-a] [1,4]diazepin-7-yl)pyrrolidin-3-ol] and CN(C)[C@@H]1CN(c2ccc3c(c2)Cn2cc(-c4ccc(C#N)cc4)cc2-c2nccn2-3)C[C@H]1O [Compound 130, 4-(7-((3R,4R)-3-(dimethylamino)-4-hydroxypyrrolidin-1-yl)-9H-benzo[e]imidazo[2,1-c]pyrrolo[1,2-a][1,4]diazepin-12-yl)benzonitrile] cannot be ordered by IC50: under 50 nM for the first, under 50 nM for the second.

CN(C)C[C@@H]1CN(c2ccc3c(c2)Cn2cc(-c4ccc(C#N)cc4)cc2-c2nncn2-3)C[C@H]1O [Compound 108, 4-(7-((3R,4S)-3-((dimethylamino)methyl)-4-hydroxypyrrolidin-1-yl)-9H-benzo[e]pyrrolo[1,2-a][1,2,4]triazolo[3,4-c][1,4]diazepin-12-yl)benzonitrile] and CN(C)C[C@@H]1CN(c2ccc3c(c2)Cn2cc(-c4ccc(C#N)cc4)cc2-c2nncn2-3)C[C@@H]1O [Compound 82, 4-(7-((3R,4R)-3-((dimethylamino)methyl)-4-hydroxypyrrolidin-1-yl)-9H-benzo[e]pyrrolo[1,2-a][1,2,4]triazolo[3,4-c][1,4]diazepin-12-yl)benzonitrile] cannot be ordered by IC50: under 50 nM for the first, under 50 nM for the second.

CC(C)N1CC2(CCN(c3ccc4c(c3)Cn3cc(-c5ccc(F)cc5)cc3-c3nccn3-4)C2)C1 [Compound 368, 12-(4-fluorophenyl)-7-(2-isopropyl-2,6-diazaspiro[3.4]octan-6-yl)-9H-benzo[e]imidazo[2,1-c]pyrrolo[1,2-a][1,4]diazepine] and Fc1ccc(-c2cc3n(c2)Cc2cc(N4CC5(CCCNC5)C4)ccc2-n2ccnc2-3)cc1 [Compound 377, 12-(4-fluorophenyl)-7-(2,6-diazaspiro[3.5]nonan-2-yl)-9H-benzo[e]imidazo[2,1-c]pyrrolo[1,2-a][1,4]diazepine] cannot be ordered by IC50: under 50 nM for the first, under 50 nM for the second.

First: CC(C)(CO)NC[C@@H]1CCN(c2ccc3c(c2)Cn2cc(-c4ccc(F)cc4)cc2-c2ncnn2-3)C1 [Compound 425, (S)-2-(((1-(12-(4-fluorophenyl)-9H-benzo[e]pyrrolo[1,2-a][1,2,4]triazolo[5,1-c][1,4]diazepin-7-yl)pyrrolidin-3-yl)methyl)amino)-2-methylpropan-1-ol]
Second: CNC[C@H]1CCN(c2ccc3c(c2)Cn2cc(-c4ccc(C#N)cc4)cc2-c2ncnn2-3)C1 [Compound 263, (R)-4-(7-(3-((methylamino)methyl)pyrrolidin-1-yl)-9H-benzo[e]pyrrolo[1,2-a][1,2,4]triazolo[5,1-c][1,4]diazepin-12-yl)benzonitrile]
The IC50 of the first is lower: 50 to 100 nM for the first, 100 to 200 nM for the second.

Compared with CN1CC2(CCN(c3ccc4c(c3)Cn3cc(-c5ccc(F)cc5)cc3-c3nnnn3-4)C2)C1 [Compound 392, 12-(4-fluorophenyl)-7-(2-methyl-2,6-diazaspiro[3.4]octan-6-yl)-9H-benzo[e]pyrrolo[1,2-a] tetrazolo[5,1-c][1,4]diazepine], Fc1ccc(-c2cc3n(c2)Cc2cc(N4CC5(CCNC5)C4)ccc2-n2nnnc2-3)cc1 [Compound 403, 12-(4-fluorophenyl)-7-(2,6-diazaspiro[3.4]octan-2-yl)-9H-benzo[e]pyrrolo[1,2-a]tetrazolo[5,1-c][1,4]diazepine] is higher in IC50: under 50 nM for the first, 50 to 100 nM for the second.

N[C@@H]1CCCN(c2ccc3c(c2)Cn2cc(-c4ccc(F)cc4)cc2-c2nnnn2-3)C1 [Compound 389, (R)-1-(12-(4-fluorophenyl)-9H-benzo[e]pyrrolo[1,2-a]tetrazolo[5,1-c][1,4]diazepin-7-yl) piperidin-3-amine] and CNCCC1CCN(c2ccc3c(c2)Cn2cc(-c4ccc(F)cc4)cc2-c2nccn2-3)C1 (centres unmarked) [Compound 487, 2-(1-(12-(4-fluorophenyl)-9H-benzo[e]imidazo[2,1-c]pyrrolo[1,2-a][1,4]diazepin-7-yl)pyrrolidin-3-yl)-N-methylethanamine] cannot be ordered by IC50: under 50 nM for the first, under 50 nM for the second.

Compared with CN(C)[C@H]1CN(c2ccc3c(c2)Cn2cc(-c4ccc(F)cc4)cc2-c2ncnn2-3)C[C@@H]1O [Compound 418, (3S,4S)-4-(dimethylamino)-1-(12-(4-fluorophenyl)-9H-benzo[e]pyrrolo[1,2-a][1,2,4]triazolo[5,1-c][1,4]diazepin-7-yl)pyrrolidin-3-ol], CN(C)[C@@H]1CN(c2ccc3c(c2)Cn2cc(-c4ccc(C#N)cc4)cc2-c2nncn2-3)C[C@H]1O (racemic) [Compound 57, 4-(7-(trans-3-(dimethylamino)-4-hydroxypyrrolidin-1-yl)-9H-benzo[e]pyrrolo[1,2-a][1,2,4]triazolo[3,4-c][1,4]diazepin-12-yl)benzonitrile] is lower in IC50: 100 to 200 nM for the first, under 50 nM for the second. The second is the more potent here.

First: CN1CC2(CCN(c3ccc4c(n3)Cn3cc(-c5ccc(C#N)cc5)cc3-c3nccn3-4)C2)C1 [Compound 297, 4-(7-(2-methyl-2,6-diazaspiro[3.4]octan-6-yl)-9H-imidazo[2,1-c]pyrido[3,2-e]pyrrolo[1,2-a] [1,4]diazepin-12-yl)benzonitrile]
Second: CN(C)C[C@@H]1CN(c2ccc3c(n2)Cn2cc(-c4ccc(C#N)cc4)cc2-c2nccn2-3)C[C@@H]1O [Compound 299, 4-(7-((3R,4R)-3-((dimethylamino)methyl)-4-hydroxypyrrolidin-1-yl)-9H-imidazo[2,1-c]pyrido[3,2-e]pyrrolo[1,2-a][1,4]diazepin-12-yl)benzonitrile]
The IC50 of the first is higher: 50 to 100 nM for the first, under 50 nM for the second.

First: N#Cc1ccc(-c2cc3n(c2Cl)Cc2cc(N4CC[C@H](CN)C4)ccc2-n2cnnc2-3)cc1 [Compound 171, (R)-4-(7-(3-(aminomethyl)pyrrolidin-1-yl)-11-chloro-9H-benzo[e]pyrrolo[1,2-a][1,2,4]tri-azolo[3,4-c][1,4]diazepin-12-yl)benzonitrile]
Second: C[C@@H](CO)NC[C@@H]1CCN(c2ccc3c(c2)Cn2cc(-c4ccc(C#N)cc4)cc2-c2nncn2-3)C1 [Compound 86, 4-(7-((S)-3-((((S)-1-hydroxypropan-2-yl)amino)methyl)pyrrolidin-1-yl)-9H-benzo[e]pyrrolo[1,2-a][1,2,4]triazolo[3,4-c][1,4]diazepin-12-yl)benzonitrile]
The IC50 of the first is higher: 50 to 100 nM for the first, under 50 nM for the second.

First: N#Cc1ccc(-c2cc3n(c2)Cc2cc(N4CC[C@H]5NCC[C@@H]54)ncc2-n2cnnc2-3)cc1 (racemic) [Compound 314, 4-(7-(trans-hexahydropyrrolo[3,2-b]pyrrol-1(2H)-yl)-9H-pyrido[3,4-e]pyrrolo[1,2-a][1,2,4]triazolo[3,4-c][1,4]diazepin-12-yl)benzonitrile]
Second: N#Cc1ccc(-c2cc3n(c2)Cc2cc(N4CCNCC4)ccc2-n2cnnc2-3)cc1 [Compound 1, 4-(7-(piperazin-1-yl)-9H-benzo[e]pyrrolo[1,2-a][1,2,4]triazolo[3,4-c][1,4]diazepin-12-yl)benzonitrile]
The IC50 of the first is lower: under 50 nM for the first, 100 to 200 nM for the second. The first is the more potent here.

First: CC(C)(CO)NC[C@@H]1CCN(c2ccc3c(c2)Cn2cc(-c4ccc(C#N)cc4)cc2-c2nccn2-3)C1 [Compound 141, (S)-4-(7-(3-(((1-hydroxy-2-methylpropan-2-yl)amino)methyl)pyrrolidin-1-yl)-9H-benzo[e]imidazo[2,1-c]pyrrolo[1,2-a][1,4]diazepin-12-yl)benzonitrile]
Second: Fc1ccc(-c2cc3n(c2)Cc2cc(N4CC[C@@H](CNCC(F)F)C4)ccc2-n2ccnc2-3)cc1 [Compound 465, (S)-2,2-difluoro-N-((1-(12-(4-fluorophenyl)-9H-benzo[e]imidazo[2,1-c]pyrrolo[1,2-a][1,4]diazepin-7-yl)pyrrolidin-3-yl)methyl)ethanamine]
The IC50 of the first is lower: under 50 nM for the first, 200 to 1000 nM for the second.

First: Cc1cc(N2C[C@@H](CN(C)C)[C@H](O)C2)cc2c1-n1ccnc1-c1cc(-c3ccc(F)cc3)cn1C2 [Compound 512, (3S,4R)-4-((dimethylamino)methyl)-1-(12-(4-fluorophenyl)-5-methyl-9H-benzo[e]imidazo[2,1-c]pyrrolo[1,2-a][1,4]diazepin-7-yl)pyrrolidin-3-ol]
Second: OC1CN(c2ccc3c(c2)Cn2cc(-c4ccc(F)cc4)cc2-c2nccn2-3)CC1CN1CCC1 (single isomer, unassigned) [Compound 469]
The IC50 of the first is higher: 500 to 1000 nM for the first, under 50 nM for the second. The second is the more potent here.

CN(C)C[C@H]1CN(c2ccc3c(n2)Cn2cc(-c4ccc(F)cc4)cc2-c2ncnn2-3)C[C@H]1O [Compound 429, (3S,4S)-4-((dimethylamino)methyl)-1-(12-(4-fluorophenyl)-9H-imidazo[2,1-c]pyrido[3,2-e]pyrrolo[1,2-a][1,4]diazepin-7-yl)pyrrolidin-3-ol] and CN(C)C[C@H]1CN(c2ccc3c(c2)Cn2cc(-c4ccc(C#N)cc4)cc2-c2nncn2-3)C[C@H]1O [Compound 81, 4-(7-((3S,4S)-3-((dimethylamino)methyl)-4-hydroxypyrrolidin-1-yl)-9H-benzo[e]pyrrolo[1,2-a][1,2,4]triazolo[3,4-c][1,4]diazepin-12-yl)benzonitrile] cannot be ordered by IC50: under 50 nM for the first, under 50 nM for the second.

OC1CCN(C[C@H]2CCN(c3ccc4c(c3)Cn3cc(-c5ccc(F)cc5)cc3-c3nccn3-4)C2)CC1 [Compound 362, (R)-1-((1-(12-(4-fluorophenyl)-9H-benzo[e]imidazo[2,1-c]pyrrolo[1,2-a][1,4]diazepin-7-yl)pyrrolidin-3-yl)methyl)piperidin-4-ol] was tested, and the IC50 was under 50 nM.
